Experimental data as given in PMC9002393, “Phytochemical Study of Eryngium cymosum F. Delaroche and the Inhibitory Capacity of Its Main Compounds on Two Glucose-Producing Pathway Enzymes” (Plants, 2022).

Legend:
[1] = target: T1, fructose-1,6-bisphosphatase (FBPase) (Rattus norvegicus, UniProt P19112); experiment: Inhibition assay of fructose-1,6-bisphosphatase (FBPase); assay type: biochemical; conditions: rat liver cytosolic supernatant; for IC50: mean ± SEM of two assays in duplicate
T1 construct: Enzymatic activity started by adding rat liver cytosolic supernatant diluted 9:1; from tissue; host or cells: rat liver cytosolic supernatant
T1 sequence (P19112 2-363 limits assumed): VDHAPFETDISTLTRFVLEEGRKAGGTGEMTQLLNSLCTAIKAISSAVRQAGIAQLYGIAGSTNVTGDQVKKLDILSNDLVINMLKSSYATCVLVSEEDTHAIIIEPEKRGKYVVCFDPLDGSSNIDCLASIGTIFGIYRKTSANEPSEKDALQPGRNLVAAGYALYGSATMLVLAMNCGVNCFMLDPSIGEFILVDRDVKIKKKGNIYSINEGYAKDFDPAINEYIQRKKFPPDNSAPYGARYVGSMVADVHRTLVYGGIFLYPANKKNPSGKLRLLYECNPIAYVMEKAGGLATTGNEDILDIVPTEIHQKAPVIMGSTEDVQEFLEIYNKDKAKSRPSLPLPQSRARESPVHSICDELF
Method: Buffer (5 μM EDTA, 5 mM MgCl2, 50 mM Tris-HCl, pH 7.2) enriched with 0.1 mM of fructose-1,6-bisphosphate was added and incubated for 5 min with different concentrations of inhibitor or samples (adenosine 5′-monophosphate or compounds) in reaction mixtures of 1 mL. Enzymatic activity started by adding rat liver cytosolic supernatant diluted 9:1 and, 15 min later, ended with the addition of a color reagent previously prepared by mixing 1 volume of 7.5% ammonium molybdate and 0.17% TWEEN 20 with 4 volumes of stock solution (0.12% malachite green in 5 volumes of water with 1 volume of H2SO4). Finally, the reaction mixtures were incubated for 10 min at room temperature and measured at 630 nm.

db/db mouse = system: db/db mouse; parameters: method as in PMID 16644902; conditions: treated for 5 weeks; cited from earlier work
α-glucosidase = target: α-glucosidase; parameters: method as in PMID 24825096; conditions: cited from earlier work
α-amylase = target: α-amylase; parameters: method as in PMID 24825096; conditions: cited from earlier work
[2] = target: T2, glucose-6-phosphatase (G6Pase) (Rattus norvegicus, UniProt P43428); experiment: Inhibition assay of glucose-6-phosphatase (G6Pase); assay type: biochemical; conditions: rat liver microsomal fractions
T2 sequence (P43428 1-357): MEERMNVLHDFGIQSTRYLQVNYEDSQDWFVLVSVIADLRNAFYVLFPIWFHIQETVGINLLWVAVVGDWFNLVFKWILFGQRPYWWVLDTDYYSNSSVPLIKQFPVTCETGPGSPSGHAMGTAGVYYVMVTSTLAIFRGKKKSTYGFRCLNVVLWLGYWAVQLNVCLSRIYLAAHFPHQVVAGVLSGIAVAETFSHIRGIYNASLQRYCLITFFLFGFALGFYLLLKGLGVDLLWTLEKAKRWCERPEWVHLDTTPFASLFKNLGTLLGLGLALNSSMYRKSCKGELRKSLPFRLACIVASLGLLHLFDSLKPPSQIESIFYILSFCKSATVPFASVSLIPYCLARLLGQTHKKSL
Method: Rat liver microsomal fractions isolated through differential centrifugation were diluted 1:1 in buffer (40 mM imidazole, 250 mM sucrose, pH 7) and added to reaction mixtures, containing buffer and different concentrations of inhibitor samples (chlorogenic acid or compounds). Enzymatic activity started by adding 20 mM of glucose-6-phosphate (G6P). Next, the mixtures were incubated at 22 °C for 20 min and ended with the addition of 900 μL of a solution of 0.42% ammonium molybdate in 1 N H2SO4, 10% SDS, and 10% ascorbic acid. Finally, they were incubated at 45 °C for 20 min and measured at 830 nm.

[3] = system: STZ-induced diabetic rats; parameters: method as in PMID 20506690; conditions: oral administration for 45 days, 100 mg/kg bw; cited from earlier work
[4] = system: STZ-induced diabetic rats; parameters: method as in PMID 21433280; conditions: 4 days of ad libitum consumption; cited from earlier work
[5] = system: high-fat diet model-STZ-induced rats; parameters: method as in doi:10.1016/j.bionut.2014.03.006; conditions: consumption for 30 days; cited from earlier work
ALR-2 = system: ALR-2; parameters: method as in earlier work; conditions: read-out: ALR2 IC50; cited from earlier work
ALR-1 = system: ALR-1; parameters: method as in earlier work; conditions: read-out: ALR1 IC50; cited from earlier work

Nc1ncnc2c1ncn2[C@@H]1O[C@H](COP(=O)(O)O)[C@@H](O)[C@H]1O [Adenosine 5′-monophosphate, reference compound]
IC50 [1]: 48.7 µM

O=C(O)/C=C/c1ccc(O)c(O)c1 [Caffeic acid (4), caffeic acid]
blood insulin levels (db/db mouse): blood insulin levels increased | plasma glucose levels (db/db mouse): plasma glucose levels decreased | α-glucosidase IC50 (α-glucosidase): 4.98 µg/mL | α-amylase IC50 (α-amylase): 3.68 µg/mL | inhibition over G6Pase (in words) [2]: modest inhibition | inhibition over FBPase (in words) [1]: no inhibition

O=C(/C=C/c1ccc(O)cc1)OC[C@H]1O[C@@H](Oc2c(-c3ccc(O)cc3)oc3cc(O)cc(O)c3c2=O)[C@H](OC(=O)/C=C/c2ccc(O)cc2)[C@@H](O)[C@@H]1O [kaempferol-3-O-(2,6-di-O-trans-ρ-coumaryl)-β-D-glucopyranoside]
inhibition over G6Pase (in words) [2]: important inhibition | inhibition over FBPase (in words) [1]: important inhibition | IC50 [1]: 70.9 µM

O=C(O)c1ccc(O)c(O)c1 [protocatechuic acid (3), protocatechuic acid]
plasma glucose [3]: decrease in plasma glucose | plasma insulin [3]: increase in plasma insulin

O=C(/C=C/c1ccc(O)c(O)c1)O[C@H](Cc1ccc(O)c(O)c1)C(=O)O [rosmarinic acid (2), rosmarinic acid]
blood glucose levels [4]: blood glucose levels were decreased | blood glucose levels [5]: decrease in blood glucose levels | plasma insulin [5]: increase in plasma insulin

O=C1NC(=O)[C@@]2(CCOc3ccc(F)cc32)N1 [sorbinil]
IC50 (ALR-2): 3.14 ± 0.02 µM

CCCC(CCC)C(=O)O [valproic acid]
IC50 (ALR-1): 57.4 ± 0.89 µM
